Reference: patent US8093239B2, “Imidazopyridine kinase inhibitors” (GlaxoSmithKline LLC, priority 2007, dated 2012)

How the values were obtained:
[1] = tested on: BT474 cell tumors (breast carcinoma cell line); assay: In vivo efficacy, BT474 tumor bearing mice; set-up: species or system mouse; conditions: BT474 study, all groups (60, 30, 15 mg/kg QD, 15 mg/kg BID)
Method: (§1) In addition to the LISN xenograft efficacy studies, Example 57 has also been assessed in vivo in two other mouse models of cancer, including: Colo-205 tumor bearing mice (colon carcinoma cell line) and BT474 tumor bearing mice (breast carcinoma cell line). Forty female nude mice bearing Colo-205 tumors (average tumor size of 200 mm3) were randomized into five groups of eight mice and dosed with either vehicle (20% SBE pH3.5) or Example 57 at 100, 30, 10 mg/kg QD or 30 mg/kg BID for 21 days. The groups of mice dosed with the higher doses of Example 57 (100 mg/kg QD and 30 mg/kg BID) lost greater than 20% body weight within 10 days of dosing so were taken off the study and allowed to recover. […] The higher doses of 100 mg/kg QD×10 and 30 mg/kg BID×10 achieved 72 and 49% tumor growth inhibition respectively.
Due to the body weight loss seen with the higher doses in the Colo-205 xenograft efficacy study, the dosing regime was altered for the follow up BT474 study. Forty female nude mice bearing subcutaneous BT474 cell tumors (average tumor size of 200 mm3) were randomized into five groups each containing eight mice and dosed with either vehicle (20% SBE pH3.5) or Example 57 at 60, 30 or 15 mg/kg QD or 15 mg/kg BID for 21 days. Note the maximal QD dose was reduced from 100 mg/kg to 60 mg/kg and the BID dose reduced from 30 mg/kg to 15 mg/kg. […]

[2] = tested on: LISN cell (mouse 3T3 fibroblasts transduced with human IGF-1R) tumors; assay: In vivo efficacy, mice bearing LISN cell tumors; conditions: for tumor growth inhibition at day 21: LISN tumors (~362 mm^3)
Method: E. In Vivo Efficacy—Mouse Models
The efficacy of the compounds of Examples 57 and 58 were assessed together in an in vivo efficacy experiment performed on mice bearing LISN cell (mouse 3T3 fibroblasts transduced with human IGF-1R) tumors. Fifty six female nude mice bearing subcutaneous LISN cell tumors were measured for tumor size and body weight and block randomized into seven groups of eight mice with an equal average tumor volume of approximately 200 mm3. Mice were dosed with either vehicle (20% SBE pH3.5), Example 57 or Example 58. The dosing schedules for each compound were based on previous experiments with the compounds and doses chosen to give the highest tumor growth inhibition and a dose response. Example 58 was dosed at 30, 100 and 300 mg/kg QD for 21 days while Example 57 was dosed at 30 mg/kg QD for 21 days, 15 mg/kg BID for 21 days and 30 mg/kg QD×3 days/week for 3 weeks.
The tumors on mice being treated with vehicle grew with the expected exponential growth throughout the 21 day study. […] The lower dose of 30 mg/kg of Example 58 achieved 28% tumor growth inhibition.
The efficacy of the compounds of Examples 237 and 219 were assessed together in an in vivo efficacy experiment performed on mice bearing LISN cell (mouse 3T3 fibroblasts transduced with human IGF-1R) tumors. Sixty four female nude mice bearing subcutaneous LISN cell tumors were measured for tumor size and body weight and block randomized into eight groups of eight mice with an equal average tumor volume of approximately 362 mm^3. Mice were dosed with either vehicle (20% SBE pH3.5), Example 237 or Example 219. The dosing schedules for each compound were based on previous experiments with the compounds and doses chosen to give the highest tumor growth inhibition and a dose response. Example 237 was administered at 30 and 60 mg/kg QD for 21 days and 30 mg/kg BID for 21 days while Example 219 was administered at 50 and 100 mg/kg QD for 21 days, 25 and 50 mg/kg BID for 21 days.
The tumors on mice being treated with vehicle grew with the expected exponential growth throughout the 21 day study. […] The lower dose of 30 mg/kg QD of Example 237 achieved 15% tumor growth inhibition at day 21 (note: 2 animals were euthanized prior to the last measurement). […] This recovered to 3% by the end of dosing and fully recovered after dosing was concluded. […] This recovered fully within 4 days after the completion of dosing.

[3] = tested on: Colo-205 tumors (colon carcinoma cell line); assay: In vivo efficacy, Colo-205 tumor bearing mice; set-up: species or system mouse; conditions: Colo-205 study
Method: as §1

[4] = LISN study (~362 mm^3), 100 mg/kg and 50 mg/kg QD

COc1cc(N2CCC(N3CCN(CCF)CC3)CC2)ccc1Nc1nccc(-c2c(-c3cccc(C(=O)Nc4c(F)cccc4F)c3)nc3ccccn23)n1 [Example 57, N-(2,6-difluorophenyl)-3-[3-(2-{[4-{4-[4-(2-fluoroethyl)-1-piperazinyl]-1-piperidinyl}-2-(methyloxy)phenyl]amino}-4-pyrimidinyl)imidazo[1,2-a]pyridin-2-yl]benzamide]
body weight loss [1]: no body weight loss | body weight loss ([2]; LISN study, 30 mg/kg QD and 15 mg/kg BID treated groups, 21 days): no body weight loss | tolerability ([2]; LISN study, 30 mg/kg QD and 15 mg/kg BID, 21 days): well tolerated | body weight loss ([2]; LISN study, 30 mg/kg QD×3 days/week for 3 weeks, over the three consecutive days of dosing, recovered in the four days between doses): significant body weight loss | body weight lost ([3]; 100 mg/kg QD and 30 mg/kg BID, within 10 days of dosing): greater than 20% | body weight loss ([3]; 30 and 10 mg/kg QD×21): no body weight loss

CCOc1cc(N2CCC(CCS(C)(=O)=O)CC2)c(C)cc1Nc1nccc(-c2c(-c3ccc(OC)c(C(=O)Nc4c(F)cccc4F)c3)nc3ccccn23)n1 [Example 219, N-(2,6-difluorophenyl)-5-(3-{2-[(2-(ethyloxy)-5-methyl-4-{4-[2-(methylsulfonyl)ethyl]-1-piperidinyl}phenyl)amino]-4-pyrimidinyl}imidazo[1,2-a]pyridin-2-yl)-2-(methyloxy)benzamide]
time to full recovery of body weight after the completion of dosing ([2]; LISN study (~362 mm^3), 25 mg/kg BID and 50 mg/kg BID): ≤ 4 days | body weight loss ([2]; LISN study (~362 mm^3), 25 mg/kg BID for 21 days): 4% | body weight loss ([2]; LISN study (~362 mm^3), 50 mg/kg BID for 21 days): 6% | body weight loss [2, 4]: no body weight loss | tolerability [2, 4]: well tolerated

COc1cc(N2CCC(N3CCN(S(C)(=O)=O)CC3)CC2)ccc1Nc1nccc(-c2c(-c3cccc(C(=O)Nc4c(F)cccc4F)c3)nc3ccccn23)n1 [Example 58, N-(2,6-difluorophenyl)-3-(3-{2-[(2-(methyloxy)-4-{4-[4-(methylsulfonyl)-1-piperazinyl]-1-piperidinyl}phenyl)amino]-4-pyrimidinyl}imidazo[1,2-a]pyridin-2-yl)benzamide]
body weight loss ([2]; LISN study, 30, 100 and 300 mg/kg QD for 21 days, throughout the study): no effect of Example 58 on body weight loss

CCc1cc(Nc2nccc(-c3c(-c4ccc(OC)c(C(=O)Nc5c(F)cccc5F)c4)nc4ccccn34)n2)c(OC)cc1N1CCC(N2CCN(S(C)(=O)=O)CC2)CC1 [Example 237, N-(2,6-difluorophenyl)-5-(3-{2-[(5-ethyl-2-(methyloxy)-4-{4-[4-(methylsulfonyl)-1-piperazinyl]-1-piperidinyl}phenyl)amino]-4-pyrimidinyl}imidazo[1,2-a]pyridin-2-yl)-2-(methyloxy)benzamide]
initial body weight loss ([2]; LISN study (~362 mm^3), 30 mg/kg BID): 6% | body weight loss by the end of dosing ([2]; LISN study (~362 mm^3), 30 mg/kg BID, fully recovered after dosing was concluded): 3% | body weight loss ([2]; LISN study (~362 mm^3), other groups (30 and 60 mg/kg QD)): no effect on body weight loss | tumor growth inhibition at day 21 ([2]; 30 mg/kg BID for 21 days): 84% | tumor growth inhibition at day 21 ([2]; 30 mg/kg QD for 21 days, 2 animals euthanized prior to the last measurement): 15% | tumor growth inhibition at day 21 ([2]; 60 mg/kg QD for 21 days): 41%
